Experiments:
[1] = test system: Baf3-CCDC6-RET^M918T xenograft; test: Tumor xenograft model; format: in vivo, BALB/c nude mice; conditions: 9 days
Experimental: (§1) All procedures relating to animal handling, care, and treatment were performed according to the Beijing Laboratory Animal Management Regulations. 6-week-old male BALB/c nude mice were inoculated subcutaneously into the flank with Baf3-CCDC6-RET^WT (5*10^6 cells/ 0.1 mL/ each), Baf3-CCDC6-RET^M918T (5*10^6 cells/0.1 mL/each), Baf3-CCDC6-RET^V804M (5*10^6 cells/ 0.1 mL/ each), or HEK293T-KIF5B-RET^V804M (5*10^6 cells/ 0.1 mL/ each). Mice were randomized by tumor size into groups of 10 to 12 when tumor volume reached approximately 100-150 mm^3. […] Tumor size and body weight were measured two times each week, and tumor volume was calculated with the following formula: [length × (width)^2]/ 2. Statistical significance was calculated by using two-way ANOVA test to assess the difference in tumor volumes between the control (vehicle-treated) and treatment groups.

[2] = test system: Baf3-CCDC6-RET^WT xenograft; test: Tumor xenograft model; format: in vivo, BALB/c nude mice
Experimental: as §1

[3] = test system: RET signaling in BaF3-CCDC6-RET^V804M/M918T cells; test: RET signaling pathway phosphorylation in cells; format: cell-based
[4] = high-dose study, 10 mg/kg (so in the source)

Work on `COc1ccc(CN2C3CC2CN(c2ccc(-c4cc(N5CC(C)(O)C5)cn5ncc(C#N)c45)cn2)C3)cn1` [SY-5007, 6-(3-hydroxy-3-methylazetidin-1-yl)-4-(6-(6-((6-methoxypyridin-3-yl)methyl)-3,6-diazabicyclo[3.1.1]heptan-3-yl)pyridin-3-yl)pyrazolo[1,5-a]pyridine-3-carbonitrile] yielded a TGI ([1]; 10 mg/kg oral) of 12.4%, a TGI ([1]; 20 mg/kg oral) of 40.9% and a TGI ([1]; 40 mg/kg oral) of 93.0%. For the same compound, the TGI ([2]; 3 mg/kg twice daily, 13 days) was 59.2%, the TGI ([2]; 6 mg/kg twice daily, 13 days) was 80.1% and the TGI ([2]; 12 mg/kg twice daily, 13 days) was 93.5%. For the same compound, the TGI [2, 4] was 112%, the “Tumor regression rate (REG)” value [2, 4] was 97.3% and the TGI ([2]; high-dose study, 20 mg/kg) was 107%. The “Tumor regression rate (REG)” value ([2]; high-dose study, 20 mg/kg) was 57.7%, the “Tumor regression rate (REG)” value ([2]; high-dose study, 40 mg/kg (so in the source)) was 0% and the Concentration of saturation [3] was 100 nM. For the same compound, the “Concentration with significant inhibitory effect on RET signaling” value [3] was 10 nM.
